Columns and labels:
Pullularia pullulans = assay: Control of fungal plants on nutrient agar; type: cell-based; details: 500 parts by weight per million
Procedure: (§1) Separate acetone compositions containing 100 and 500 parts, respectively, of each of 2-(p-nitrophenyl)- 2-(2,2,2-trichloroethyl)oxirane and 2-(m-nitrophenyl)- 2-(2,2,2-trichloroethyl)oxirane compounds per million parts by weight of ultimate mixture were prepared by dissolving a pre-determined amount of each of the above compounds in acetone to give the desired concentrations. The solutions were dispersed in melted nutrient agar to produce culture media for fungal plants. The agar solutions were poured into petri dishes and allowed to solidify. The solidified agar surface in each petri dish was inoculated with one species of a fungal plant; the plants employed being Staphylococcus aureus, Candida albicans, Trichophton mentagrophytes, Bacillus subtilis, Aspergillus terreus, Candida pelliculosa, Pullularia pullulans, Mycobacterium phlei, Cephaloascus fragans and Aerobacter aerogenes.
(§2) The inoculation was carried out by applying droplets of a solution containing the fungal plants to the agar surfaces. The inoculated petri dishes were then incubated for an appropriate period of time and under conditions conducive to the growth of the fungal plants involved.
(§3) After incubation, the petri dishes were examined to determine the degree of control of the fungal plants.

Candida albicans = assay: Control of fungal plants on nutrient agar; type: cell-based; details: 500 parts by weight per million
Procedure: as §1, §2, §3

Aspergillus terreus = assay: Control of fungal plants on nutrient agar; type: cell-based; details: 500 parts by weight per million
Procedure: as §1, §2, §3

Mycobacterium phlei = assay: Control of fungal plants on nutrient agar; type: cell-based; details: 500 parts by weight per million
Procedure: as §1, §2, §3

Cephaloascus fragans = assay: Control of fungal plants on nutrient agar; type: cell-based; details: 500 parts by weight per million
Procedure: as §1, §2, §3

Staphylococcus aureus = assay: Control of fungal plants on nutrient agar; type: cell-based; details: 500 parts by weight per million
Procedure: as §1, §2, §3

Bacillus subtilis = assay: Control of fungal plants on nutrient agar; type: cell-based; details: 500 parts by weight per million
Procedure: as §1, §2, §3

Candida pelliculosa = assay: Control of fungal plants on nutrient agar; type: cell-based; details: 500 parts by weight per million
Procedure: as §1, §2, §3

[1] = system: Trichophton mentagrophytes; assay: Control of fungal plants on nutrient agar; type: cell-based; details: 500 parts by weight per million
Procedure: as §1, §2, §3

Corn = assay: Pre-emergent control of seed germination, soil drench; type: in vivo; details: about 2 weeks
Excerpt: (§4) Four parts by weight of the compound, 0.08 part of sorbitan trioleate (Span 85), and 0.02 part of a sorbitan monooleate polyoxyethylene derivative (Tween 80) are dipersed in 40 milliliters of acetone to produce a concentrate composition in the form of a water-dispersible liquid containing the predetermined oxirane compound as the sole active agent.
(§5) A portion of each of these concentrate compositions were separately dispersed in portions of water to provide aqueous compositions, containing 0.44 pound of the oxirane compound per 100 gallons of ultimate aqueous mixture.
(§6) The aqueous compositions were then employed for the treatment of seed beds of good agricultural soil which had been prepared and seeded with the seeds of various grass species and broadleaf plants. The grass species included white winter wheat, cultured rice, pigweeds, crabgrass, cheat grass, wild oats, Johnson grass, barnyard grass and yellow foxtail; and the broadleaf plants included corn. In the treating operations, a predetermined quantity of each of the compositions was applied to separate seedbeds as a soil drench at a rate of about 0.43 acre inch of aqueous composition per acre. The quantities were controlled to supply a substantial uniform dosage in a seedbed equivalent to 1.0, 2.0 and 5.0 pounds of the oxirane compound per acre. These dosages correspond, respectively, to a concentration, within the soil depth penetrated of about 1.6, 3.2 and 8.0 parts by weight of the oxirane compound per million parts by weight of soil. Other seedbeds were similarly seeded with the named plant species but were left untreated to serve as checks.
After about 2 weeks the seedbeds were examined to ascertain what control of the growth of seeds had been obtained. […]
(§7) An aqueous composition containing 2-(α,α,α -trifluoro-m-tolyl)-2-(2,2,2-trichloroethyl)oxirane was prepared as described in Example 32. The composition was then employed according to the procedures of Example 32 except that lower concentrations of the oxirane compound were employed in the composition.
(§8) The percent control of the various plant species at the employed dosage rate of the 2-(α,α,α-trifluoro-m-tolyl)- 2-(2,2,2-trichloroethyl) supplied by the composition is set forth in the following Table IV.

Cheat Grass = assay: as above; type: in vivo; details: 5.0 pounds per surface acre, about 2 weeks
Excerpt: as §4, §5
as §6, with “These dosages correspond, respectively, to a concentration, within the soil depth penetrated of about 1.6, 3.2 and 8.0 parts by weight of the oxirane compound per million parts by weight of soil. Other seedbeds were similarly seeded with the named plant species but were left untreated to serve as checks.” left out

Johnson Grass = assay: as above; type: in vivo; details: Johnson Grass, about 2 weeks
Excerpt: as §4, §5, §6
(§9) After about 2 weeks the seedbeds were examined to ascertain what control of the growth of seeds had been obtained.
(§10) were prepared as in Example 32 and similarly employed for the pre-emergencetreatment of various plant species.
(§11) Separate aqueous compositions containing the 2-(m-chlorophenyl)-2-(2,2,2-trichloroethyl)oxirane (Cmpd. A) and 2-(m-bromophenyl)-2-(2,2,2-trichloroethyl)oxirane (Cmpd. C) compounds of the present invention were prepared as in Example 32 for comparative per-emergence herbicide tests against noxious grass species with the known 2 -(p-chlorophenyl)-2-(2,2,2-trichloroethyl)oxirane (Cmpd. B) compound and 2-(p-bromophenyl)-2-(2,2,2-trichloroethyl)oxirane (Cmpd. D). The pre-emergence tests were conducted in Example 32 and the results of such tests are set forth below in Table III.
as §7, §8

Crabgrass = assay: as above; type: in vivo; details: Crabgrass, about 2 weeks
Excerpt: as §4, §5, §6, §9, §10, §11, §7, §8

Yellow Foxtail = assay: as above; type: in vivo; details: Yellow Foxtail, 1.0 pounds per surface acre, about 2 weeks
Excerpt: as §4, §5, §6, §9, §10, §7, §8

Barnyard Grass = assay: as above; type: in vivo; details: Barnyard Grass, about 2 weeks
Excerpt: as §4, §5, §6, §9, §10, §7, §8

Pigweeds = assay: as above; type: in vivo; details: Pig Weeds, about 2 weeks
Excerpt: as §4, §5, §6, §9, §10, §7, §8

Wild Oats = assay: as above; type: in vivo; details: Wild Oats, about 2 weeks
Excerpt: as §4, §5, §6, §9, §10, §7, §8

Cultured Rice = assay: as above; type: in vivo; details: about 2 weeks
Excerpt: as §4, §5, §6, §9, §7, §8

White Winter Wheat = assay: as above; type: in vivo; details: about 2 weeks
Excerpt: as §4, §5, §6, §9, §7, §8

O=[N+]([O-])c1cccc(C2(CC(Cl)(Cl)Cl)CO2)c1 (centres unmarked) [Example 2, 2-(m-nitrophenyl)-2-(2,2,2-trichloroethyl)oxirane]
degree of control of the fungal plants (Pullularia pullulans): complete control and kill | degree of control of the fungal plants (Candida albicans): complete control and kill | degree of control of the fungal plants (Aspergillus terreus): complete control and kill | degree of control of the fungal plants (Mycobacterium phlei): complete control and kill | degree of control of the fungal plants (Cephaloascus fragans): complete control and kill | degree of control of the fungal plants (Staphylococcus aureus): complete control and kill | degree of control of the fungal plants (Bacillus subtilis): complete control and kill | degree of control of the fungal plants (Candida pelliculosa): complete control and kill | degree of control of the fungal plants [1]: complete control and kill | Percent Pre-Emergent Control of Seed Germination (Corn; 1.0 pounds per surface acre): 100% | Percent Pre-Emergent Control of Seed Germination (Corn; 2.0 pounds per surface acre): 50% | Percent Pre-Emergent Control of Seed Germination (Corn; 5.0 pounds per surface acre): 0% | Percent Pre-Emergent Control of Seed Germination (Cheat Grass): 100% | Percent Pre-Emergent Control of Seed Germination (Johnson Grass; 1.0 pounds per surface acre): 70% | Percent Pre-Emergent Control of Seed Germination (Johnson Grass; 2.0 pounds per surface acre): 85% | Percent Pre-Emergent Control of Seed Germination (Johnson Grass; 5.0 pounds per surface acre): 95% | Percent Pre-Emergent Control of Seed Germination (Crabgrass; 1.0 pounds per surface acre): 95% | Percent Pre-Emergent Control of Seed Germination (Crabgrass; 2.0 pounds per surface acre): 100% | Percent Pre-Emergent Control of Seed Germination (Crabgrass; 5.0 pounds per surface acre): 100% | Percent Pre-Emergent Control of Seed Germination (Yellow Foxtail): 100% | Percent Pre-Emergent Control of Seed Germination (Barnyard Grass; 1.0 pounds per surface acre): 50% | Percent Pre-Emergent Control of Seed Germination (Barnyard Grass; 2.0 pounds per surface acre): 50% | Percent Pre-Emergent Control of Seed Germination (Barnyard Grass; 5.0 pounds per surface acre): 95% | Percent Pre-Emergent Control of Seed Germination (Pigweeds; 1.0 pounds per surface acre): 85% | Percent Pre-Emergent Control of Seed Germination (Pigweeds; 2.0 pounds per surface acre): 95% | Percent Pre-Emergent Control of Seed Germination (Pigweeds; 5.0 pounds per surface acre): 95% | Percent Pre-Emergent Control of Seed Germination (Wild Oats; 1.0 pounds per surface acre): 40% | Percent Pre-Emergent Control of Seed Germination (Wild Oats; 2.0 pounds per surface acre): 50% | Percent Pre-Emergent Control of Seed Germination (Wild Oats; 5.0 pounds per surface acre): 80% | Percent Pre-Emergent Control of Seed Germination (Cultured Rice; 1.0 pounds per surface acre): 100% | Percent Pre-Emergent Control of Seed Germination (Cultured Rice; 2.0 pounds per surface acre): 95% | Percent Pre-Emergent Control of Seed Germination (Cultured Rice; 5.0 pounds per surface acre): 100% | Percent Pre-Emergent Control of Seed Germination (White Winter Wheat; 1.0 pounds per surface acre): 90% | Percent Pre-Emergent Control of Seed Germination (White Winter Wheat; 2.0 pounds per surface acre): 50% | Percent Pre-Emergent Control of Seed Germination (White Winter Wheat; 5.0 pounds per surface acre): 95%

— patent US4018801A, “Substituted oxirane compounds” (The Dow Chemical Company, priority 1975, dated 1977)
